{"source": "patent US20240269139A1", "about": "“COMPOUNDS FOR TARGETED PROTEIN DEGRADATION OF KINASES” (DANA-FARBER CANCER INSTITUTE, INC., priority 2020, published 2024)", "format_in_all_cases": "cell-based", "key": {"[1]": {"biological_target": "T1, protein kinases (human kinome) (Homo sapiens, UniProt Q9UQ88)", "T1 sequence (Q9UQ88 1-783)": "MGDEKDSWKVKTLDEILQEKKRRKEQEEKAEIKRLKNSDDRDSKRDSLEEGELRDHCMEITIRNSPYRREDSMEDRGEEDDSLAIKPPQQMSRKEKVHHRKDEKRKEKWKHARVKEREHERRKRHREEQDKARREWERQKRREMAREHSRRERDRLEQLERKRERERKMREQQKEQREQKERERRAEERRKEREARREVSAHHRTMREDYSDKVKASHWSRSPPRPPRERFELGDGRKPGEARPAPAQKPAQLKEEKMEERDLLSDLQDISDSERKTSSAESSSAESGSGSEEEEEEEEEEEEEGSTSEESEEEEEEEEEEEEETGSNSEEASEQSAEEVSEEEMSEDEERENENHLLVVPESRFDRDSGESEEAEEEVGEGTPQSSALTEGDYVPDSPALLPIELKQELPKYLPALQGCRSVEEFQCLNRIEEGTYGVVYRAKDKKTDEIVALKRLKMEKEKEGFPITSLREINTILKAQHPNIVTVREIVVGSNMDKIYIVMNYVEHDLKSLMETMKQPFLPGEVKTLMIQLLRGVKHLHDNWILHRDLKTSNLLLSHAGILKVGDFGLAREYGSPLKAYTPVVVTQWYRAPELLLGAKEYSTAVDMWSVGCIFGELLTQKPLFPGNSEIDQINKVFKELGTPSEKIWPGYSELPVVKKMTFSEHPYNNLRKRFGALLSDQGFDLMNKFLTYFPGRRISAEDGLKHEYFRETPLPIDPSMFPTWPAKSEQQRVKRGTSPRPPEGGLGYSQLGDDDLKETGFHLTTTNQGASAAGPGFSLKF", "details": "experiment wp105"}, "[2]": {"biological_target": "protein kinases (human kinome) (Homo sapiens, UniProt Q9H999)", "sequence (Q9H999 whole entry)": "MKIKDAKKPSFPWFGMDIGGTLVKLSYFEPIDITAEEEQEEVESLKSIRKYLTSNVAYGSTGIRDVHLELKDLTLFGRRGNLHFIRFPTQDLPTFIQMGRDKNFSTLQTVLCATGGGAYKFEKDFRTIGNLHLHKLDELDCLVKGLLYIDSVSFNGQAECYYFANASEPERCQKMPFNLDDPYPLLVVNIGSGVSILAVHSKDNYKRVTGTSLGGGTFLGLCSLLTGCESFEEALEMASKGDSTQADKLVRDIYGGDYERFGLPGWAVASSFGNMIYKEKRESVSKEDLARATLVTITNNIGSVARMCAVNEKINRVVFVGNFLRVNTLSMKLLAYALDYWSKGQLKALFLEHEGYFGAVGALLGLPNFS", "details": "PANK3 (Q9H999); experiment wp152"}, "[3]": {"biological_target": "protein kinases (human kinome) (Homo sapiens, UniProt P45983)", "sequence (P45983 whole entry)": "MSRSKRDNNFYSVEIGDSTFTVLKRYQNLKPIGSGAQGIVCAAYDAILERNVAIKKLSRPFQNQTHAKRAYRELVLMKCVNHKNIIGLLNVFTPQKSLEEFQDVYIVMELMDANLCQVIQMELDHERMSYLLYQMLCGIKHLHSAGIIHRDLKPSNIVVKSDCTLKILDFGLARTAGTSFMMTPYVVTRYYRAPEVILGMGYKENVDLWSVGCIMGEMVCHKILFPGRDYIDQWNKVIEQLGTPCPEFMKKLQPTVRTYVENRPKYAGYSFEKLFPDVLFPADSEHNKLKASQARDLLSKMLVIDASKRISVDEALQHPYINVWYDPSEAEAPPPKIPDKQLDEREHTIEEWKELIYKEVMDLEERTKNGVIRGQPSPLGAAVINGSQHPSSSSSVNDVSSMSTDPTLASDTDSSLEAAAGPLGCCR", "details": "for logFC MAPK8 (P45983): Experiment wp152"}, "[4]": {"biological_target": "protein kinases (human kinome) (Homo sapiens, UniProt Q14680)", "sequence (Q14680 whole entry)": "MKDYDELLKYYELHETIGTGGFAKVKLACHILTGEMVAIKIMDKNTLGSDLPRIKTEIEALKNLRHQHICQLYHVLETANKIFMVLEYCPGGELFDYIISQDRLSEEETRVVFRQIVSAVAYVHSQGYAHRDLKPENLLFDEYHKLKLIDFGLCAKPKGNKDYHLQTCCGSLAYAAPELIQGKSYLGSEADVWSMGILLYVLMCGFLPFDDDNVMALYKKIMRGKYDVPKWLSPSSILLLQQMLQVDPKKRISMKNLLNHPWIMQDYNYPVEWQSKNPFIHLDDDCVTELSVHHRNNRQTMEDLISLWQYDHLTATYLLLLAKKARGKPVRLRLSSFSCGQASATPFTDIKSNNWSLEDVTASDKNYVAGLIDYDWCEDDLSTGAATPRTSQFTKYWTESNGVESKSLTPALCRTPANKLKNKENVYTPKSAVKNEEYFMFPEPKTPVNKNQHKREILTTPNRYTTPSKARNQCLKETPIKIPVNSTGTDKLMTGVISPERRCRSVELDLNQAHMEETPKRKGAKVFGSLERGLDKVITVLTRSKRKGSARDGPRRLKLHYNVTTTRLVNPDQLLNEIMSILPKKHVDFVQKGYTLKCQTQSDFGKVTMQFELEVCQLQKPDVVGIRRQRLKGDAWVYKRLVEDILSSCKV", "details": "experiment wp131"}, "[5]": {"biological_target": "protein kinases (human kinome) (Homo sapiens, UniProt P31749)", "sequence (P31749 whole entry)": "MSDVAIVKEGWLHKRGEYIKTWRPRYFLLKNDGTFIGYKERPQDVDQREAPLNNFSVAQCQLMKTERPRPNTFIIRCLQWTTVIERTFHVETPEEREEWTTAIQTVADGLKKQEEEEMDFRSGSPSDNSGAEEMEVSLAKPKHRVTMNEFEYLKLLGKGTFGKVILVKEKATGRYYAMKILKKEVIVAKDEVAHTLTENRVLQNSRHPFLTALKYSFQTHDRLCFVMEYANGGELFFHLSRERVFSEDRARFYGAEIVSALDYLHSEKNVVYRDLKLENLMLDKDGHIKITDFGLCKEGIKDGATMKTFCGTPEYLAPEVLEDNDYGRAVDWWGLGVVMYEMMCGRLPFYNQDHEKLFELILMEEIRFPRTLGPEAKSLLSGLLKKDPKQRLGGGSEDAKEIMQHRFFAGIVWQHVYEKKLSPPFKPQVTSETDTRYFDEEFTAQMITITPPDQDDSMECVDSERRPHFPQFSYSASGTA", "details": "for logFC: AKT1 (P31749)"}, "[6]": {"biological_target": "protein kinases (human kinome) (Homo sapiens, UniProt P48736)"}, "[7]": {"biological_target": "protein kinases (human kinome) (Homo sapiens, UniProt Q8IW41)", "sequence (Q8IW41 whole entry)": "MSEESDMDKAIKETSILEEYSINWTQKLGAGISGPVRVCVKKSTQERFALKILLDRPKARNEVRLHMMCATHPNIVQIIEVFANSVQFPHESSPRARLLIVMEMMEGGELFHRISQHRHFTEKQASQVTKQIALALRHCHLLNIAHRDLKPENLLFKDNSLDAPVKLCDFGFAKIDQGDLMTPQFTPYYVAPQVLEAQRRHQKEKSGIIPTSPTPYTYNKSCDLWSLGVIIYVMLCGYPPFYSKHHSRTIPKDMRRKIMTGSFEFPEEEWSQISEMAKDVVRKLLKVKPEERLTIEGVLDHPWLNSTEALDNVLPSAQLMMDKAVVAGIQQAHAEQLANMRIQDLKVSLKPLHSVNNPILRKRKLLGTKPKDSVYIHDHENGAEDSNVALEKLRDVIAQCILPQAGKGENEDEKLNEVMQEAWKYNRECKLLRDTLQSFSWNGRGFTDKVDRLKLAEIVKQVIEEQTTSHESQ", "details": "experiment wp080"}, "[8]": {"biological_target": "protein kinases (human kinome) (Homo sapiens, UniProt P54760)", "sequence (P54760 16-987)": "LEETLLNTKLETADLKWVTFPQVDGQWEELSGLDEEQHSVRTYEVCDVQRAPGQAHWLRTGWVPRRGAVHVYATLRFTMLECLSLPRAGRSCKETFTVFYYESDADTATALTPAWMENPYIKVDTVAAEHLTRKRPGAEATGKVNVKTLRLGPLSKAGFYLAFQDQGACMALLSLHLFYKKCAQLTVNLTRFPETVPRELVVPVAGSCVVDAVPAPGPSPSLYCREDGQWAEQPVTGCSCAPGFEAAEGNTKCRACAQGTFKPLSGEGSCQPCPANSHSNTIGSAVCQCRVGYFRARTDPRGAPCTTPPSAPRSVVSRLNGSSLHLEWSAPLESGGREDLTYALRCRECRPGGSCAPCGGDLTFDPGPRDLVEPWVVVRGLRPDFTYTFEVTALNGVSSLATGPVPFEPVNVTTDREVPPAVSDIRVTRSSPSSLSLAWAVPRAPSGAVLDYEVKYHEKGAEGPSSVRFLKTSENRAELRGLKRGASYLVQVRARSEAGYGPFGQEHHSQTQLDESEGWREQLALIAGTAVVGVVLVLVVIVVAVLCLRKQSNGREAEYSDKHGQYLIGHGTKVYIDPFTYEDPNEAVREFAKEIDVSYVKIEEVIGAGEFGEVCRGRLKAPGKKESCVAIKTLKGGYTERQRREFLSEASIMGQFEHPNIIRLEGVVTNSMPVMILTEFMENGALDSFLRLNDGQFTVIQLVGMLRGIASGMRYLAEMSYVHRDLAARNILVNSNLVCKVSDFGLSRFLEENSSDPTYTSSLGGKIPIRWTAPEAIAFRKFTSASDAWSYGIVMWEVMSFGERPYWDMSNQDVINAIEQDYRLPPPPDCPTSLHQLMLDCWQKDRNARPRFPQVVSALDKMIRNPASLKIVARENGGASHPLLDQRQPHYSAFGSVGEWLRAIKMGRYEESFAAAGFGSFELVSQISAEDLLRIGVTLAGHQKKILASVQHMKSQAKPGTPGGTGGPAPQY", "details": "experiment wp172"}, "[9]": {"biological_target": "protein kinases (human kinome) (Homo sapiens, UniProt Q86UX6)", "sequence (Q86UX6 whole entry)": "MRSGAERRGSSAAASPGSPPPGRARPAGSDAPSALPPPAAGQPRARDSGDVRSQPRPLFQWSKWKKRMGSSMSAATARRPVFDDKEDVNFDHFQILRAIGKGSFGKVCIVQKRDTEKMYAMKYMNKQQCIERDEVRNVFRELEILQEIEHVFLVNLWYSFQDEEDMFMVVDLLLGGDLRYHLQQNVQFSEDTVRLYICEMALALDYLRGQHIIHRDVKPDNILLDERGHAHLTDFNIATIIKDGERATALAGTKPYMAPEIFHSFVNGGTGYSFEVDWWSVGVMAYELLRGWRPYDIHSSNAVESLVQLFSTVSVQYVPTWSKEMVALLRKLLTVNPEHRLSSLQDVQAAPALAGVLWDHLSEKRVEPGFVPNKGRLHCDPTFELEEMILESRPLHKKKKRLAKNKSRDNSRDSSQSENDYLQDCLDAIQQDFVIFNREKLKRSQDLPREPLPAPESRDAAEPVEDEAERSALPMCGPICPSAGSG"}, "[10]": {"biological_target": "protein kinases (human kinome) (Homo sapiens, UniProt O00418)", "sequence (O00418 whole entry)": "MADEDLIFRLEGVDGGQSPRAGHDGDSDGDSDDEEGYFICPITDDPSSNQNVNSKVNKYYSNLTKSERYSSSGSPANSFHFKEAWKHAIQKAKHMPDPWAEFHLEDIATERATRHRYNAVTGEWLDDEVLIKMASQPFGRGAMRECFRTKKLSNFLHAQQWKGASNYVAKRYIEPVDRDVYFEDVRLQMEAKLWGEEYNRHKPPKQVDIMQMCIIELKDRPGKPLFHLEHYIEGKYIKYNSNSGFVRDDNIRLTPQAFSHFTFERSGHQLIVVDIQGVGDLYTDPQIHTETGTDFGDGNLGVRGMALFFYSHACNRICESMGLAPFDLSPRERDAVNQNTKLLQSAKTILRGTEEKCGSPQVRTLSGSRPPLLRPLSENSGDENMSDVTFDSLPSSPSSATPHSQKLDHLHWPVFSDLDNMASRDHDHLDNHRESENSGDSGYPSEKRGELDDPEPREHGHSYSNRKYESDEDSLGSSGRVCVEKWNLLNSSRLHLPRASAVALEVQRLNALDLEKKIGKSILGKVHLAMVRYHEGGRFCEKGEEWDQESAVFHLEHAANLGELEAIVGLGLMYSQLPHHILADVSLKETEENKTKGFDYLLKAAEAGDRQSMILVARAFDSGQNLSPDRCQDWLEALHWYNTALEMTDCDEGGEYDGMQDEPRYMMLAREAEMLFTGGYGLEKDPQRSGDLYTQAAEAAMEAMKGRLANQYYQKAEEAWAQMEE", "details": "experiment wp137"}}, "note": "Where two headings read alike, the source gives them in different places.", "data": [{"smiles": "Cc1ccc(NC(=O)c2cccc(C(F)(F)F)c2)cc1N1Cc2cnc(Nc3ccc(N4CCN(Cc5cn(CCCCCOc6cccc7c6C(=O)N(C6CCC(=O)NC6=O)C7=O)nn5)CC4)nc3)nc2N(C)C1=O", "note": "(centres unmarked) [DB0646, N-(3-(7-((6-(4-((1-(5-((2-(2,6-Dioxopiperidin-3-yl)-1,3-dioxoisoindolin-4-yl)oxy)pentyl)-1H-1,2,3-triazol-4-yl)methyl)piperazin-1-v)pyridin-3-yl)amino)-1-methyl-2-oxo-1,4-dihydropyrimido[4,5-d]pyrimidin-3(2H)-yl)-4-methylphenyl)-3-(trifluoromethyl)benzamide]", "values": [{"measurement": "logFC", "setting": "[1]; CDK11A (Q9UQ88-1)", "result": "−0.868"}, {"measurement": "logFC of CDK11A (Q9UQ88-1)", "setting": "[1]", "result": "−0.868"}, {"measurement": "logFC", "setting": "[2]", "result": "−0.3534"}, {"measurement": "logFC MAPK8 (P45983)", "setting": "[3]; direction down", "result": "−0.8433"}, {"measurement": "logFC MAPK8 (P45983)", "setting": "[3]; direction of change down", "result": "−0.8433"}, {"measurement": "logFC MAPK8 (P45983-1)", "setting": "[3]; Experiment wp172, direction down", "result": "−0.376"}, {"measurement": "logFC MAPK8 (P45983-1)", "setting": "[3]; experiment wp172, direction of change down", "result": "−0.376"}]}, {"smiles": "Cc1ncsc1-c1ccc([C@H](C)NC(=O)[C@@H]2C[C@@H](O)CN2C(=O)[C@@H](NC(=O)CCOCCOCCN2CCN(c3ccc(Nc4ncc(Cl)c(Nc5ccccc5S(=O)(=O)C(C)C)n4)cc3)CC2)C(C)(C)C)cc1", "note": "[FMF.06.098.1]", "values": [{"measurement": "logFC MELK (Q14680)", "setting": "[4]; direction of change down", "result": "−0.38"}, {"measurement": "logFC MELK", "setting": "[4]; protein MELK (Q14680), down", "result": "−0.38"}]}, {"smiles": "C[C@@H]1C[C@@H](O)c2ncnc(N3CCN(C(=O)[C@H](CNCCCCCCCCCCc4cccc5c4C(=O)N(C4CCC(=O)NC4=O)C5=O)c4ccc(Cl)cc4)CC3)c21", "note": "(some centres unmarked) [INY.03.041.01]", "values": [{"measurement": "logFC", "setting": "[5]; experiment wp118", "result": "−2.258"}, {"measurement": "logFC", "setting": "[5]; experiment wp135, 4 hr", "result": "−1.225"}, {"measurement": "logFC of AKT1 (P31749)", "setting": "[5]; Experiment wp135, 4 hr", "result": "−1.225"}, {"measurement": "logFC of AKT1 (P31749)", "setting": "[5]; experiment wp118", "result": "−2.258"}]}, {"smiles": "O=C1CCC(N2C(=O)c3cccc(NCCCCCCCCN4CCC(NC(=O)c5[nH]ncc5NC(=O)c5c(Cl)cccc5Cl)CC4)c3C2=O)C(=O)N1", "note": "(centres unmarked) [MFH.5.126.1]", "values": [{"measurement": "logFC PIK3CG (P48736)", "setting": "[6]; Experiment wp076, direction of change down", "result": "−0.3735"}, {"measurement": "logFC", "setting": "[6]; PIK3CG (P48736), experiment wp076", "result": "−0.3735"}]}, {"smiles": "Cc1ncsc1-c1ccc([C@H](C)NC(=O)[C@@H]2C[C@@H](O)CN2C(=O)[C@@H](NC(=O)CCCCCN2CCN(c3ccc(Nc4ncc5scc(-c6cccc(NS(C)(=O)=O)c6)c5n4)cc3)CC2)C(C)(C)C)cc1", "note": "[RSS0680, (2S,4R)-1-((S)-3,3-Dimethyl-2-(6-(4-(4-((7-(3-(methylsulfonamido)phenyl)thieno[3,2-d]pyrimidin-2-yl)amino)phenyl)piperazin-1-yl)hexanamido)butanoyl)-4-hydroxy-N—((S)-1-(4-(4-methylthiazol-5yl)phenyl)ethyl)pyrrolidine-2-carboxamide]", "values": [{"measurement": "logFC MAPKAPK5 (Q8IW41)", "setting": "[7]; direction of change down", "result": "−0.3355"}, {"measurement": "logFC MAPKAPK5", "setting": "[7]; protein MAPKAPK5 (Q8IW41), down", "result": "−0.3355"}]}, {"smiles": "CC(C)S(=O)(=O)c1ccccc1Nc1nc(Nc2ccc(N3CCN(CCOCCNC(=O)CNc4cccc5c4C(=O)N(C4CCC(=O)NC4=O)C5=O)CC3)cc2)ncc1Cl", "note": "(centres unmarked) [SK.3.91]", "values": [{"measurement": "logFC EPHB4 (P54760)", "setting": "[8]; direction of change down", "result": "−0.5059"}, {"measurement": "logFC EPHB4", "setting": "[8]; protein EPHB4 (P54760), down", "result": "−0.5059"}, {"measurement": "logFC STK32C (Q86UX6)", "setting": "[9]; Experiment wp114, direction of change down", "result": "−0.6189"}, {"measurement": "logFC STK32C", "setting": "[9]; protein STK32C (Q86UX6), experiment wp114, down", "result": "−0.6189"}]}, {"smiles": "CC(C)S(=O)(=O)c1ccccc1Nc1nc(Nc2ccc(N3CCN(CCOCCOCCNC(=O)CNc4cccc5c4C(=O)N(C4CCC(=O)NC4=O)C5=O)CC3)cc2)ncc1Cl", "note": "(centres unmarked) [TL12.186]", "values": [{"measurement": "logFC EEF2K (O00418)", "setting": "[10]; direction of change down", "result": "−0.3443"}, {"measurement": "logFC EEF2K", "setting": "[10]; protein EEF2K (O00418), down", "result": "−0.3443"}]}]}
